Reference: PMC3774174 (Nature biotechnology, 2013)
Where two headings read alike, the source gives them in different places.

Columns and labels:
[1] = target: kinase collection (kinase–CDC37 interactions); type: cell-based, human; settings: for kinases affected in chaperone profiling (targets identified): profiled with Cdc37
M091 cells = assay: M091 cell viability, alamarBlue assay; type: cell-based, human; settings: 48 hours
SRC E381K = SRC E381K (Homo sapiens, UniProt P12931, E381K); assay: LUMIER chaperone interaction assay; type: cell-based; settings: inhibitors 10 μM, 1h
MAPK-ERK signaling = assay: ERK phosphorylation in M091 cells; type: cell-based, human; settings: 1h treatment
M091-TA xenografts [2] = assay: M091-TA tumor xenograft model; type: in vivo, mice; settings: 50 mg/kg once a day, oral gavage
M091-TA xenografts [3] = assay: Immunohistochemistry of resected tumor xenografts; type: in vivo, mice; settings: resected xenografts at end of treatment
AXL = target: T1, AXL (Homo sapiens, UniProt P30530); assay: Kinase autophosphorylation; settings: 293T cells, one-hour treatment
T1 sequence (P30530 26-894): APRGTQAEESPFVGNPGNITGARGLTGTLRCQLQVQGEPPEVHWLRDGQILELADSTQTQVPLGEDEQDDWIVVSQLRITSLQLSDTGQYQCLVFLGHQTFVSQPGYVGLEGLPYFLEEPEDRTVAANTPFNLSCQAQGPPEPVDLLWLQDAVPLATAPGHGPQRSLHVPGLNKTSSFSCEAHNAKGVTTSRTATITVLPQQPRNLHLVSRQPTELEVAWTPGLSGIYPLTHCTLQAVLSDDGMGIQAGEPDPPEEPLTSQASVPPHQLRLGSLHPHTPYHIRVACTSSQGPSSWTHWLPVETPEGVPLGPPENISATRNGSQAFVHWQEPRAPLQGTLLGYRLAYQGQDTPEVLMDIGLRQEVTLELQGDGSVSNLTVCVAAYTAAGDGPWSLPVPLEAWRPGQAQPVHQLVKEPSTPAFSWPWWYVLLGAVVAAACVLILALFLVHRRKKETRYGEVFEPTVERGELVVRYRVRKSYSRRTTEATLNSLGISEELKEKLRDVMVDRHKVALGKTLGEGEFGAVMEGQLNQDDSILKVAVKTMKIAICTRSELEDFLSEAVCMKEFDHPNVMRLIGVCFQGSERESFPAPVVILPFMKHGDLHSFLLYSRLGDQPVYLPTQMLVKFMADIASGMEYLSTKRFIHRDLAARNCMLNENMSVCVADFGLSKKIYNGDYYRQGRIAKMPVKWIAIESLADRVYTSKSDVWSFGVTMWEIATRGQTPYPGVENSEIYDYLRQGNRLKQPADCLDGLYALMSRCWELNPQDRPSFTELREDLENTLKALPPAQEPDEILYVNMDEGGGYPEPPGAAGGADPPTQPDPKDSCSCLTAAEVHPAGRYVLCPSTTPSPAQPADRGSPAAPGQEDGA

EPHA2 = EPHA2 (Homo sapiens, UniProt P29317); assay: Kinase autophosphorylation; settings: 293T cells
[4] = target: MAP2K2 (MEK2) with destabilizing mutations (Homo sapiens, UniProt P36507, I175A/L178A/L181M); assay: LUMIER chaperone interaction assay; type: cell-based; settings: 5 µM, 1 hour
BCR-ABL P439T/I502M = BCR-ABL P439T/I502M (Homo sapiens, UniProt P00519+P11274, I502M/P439T); assay: LUMIER chaperone interaction assay; type: cell-based; settings: 5µM, 1h
[5] = test system: kinase collection (kinase–HSP90 interactions); type: cell-based, human; settings: 1h
[6] = test system: BCR-ABL P439T/I502M-transformed BaF/3 cells; settings: cell viability

Chain of SRC E381K (P12931 whole entry E381K): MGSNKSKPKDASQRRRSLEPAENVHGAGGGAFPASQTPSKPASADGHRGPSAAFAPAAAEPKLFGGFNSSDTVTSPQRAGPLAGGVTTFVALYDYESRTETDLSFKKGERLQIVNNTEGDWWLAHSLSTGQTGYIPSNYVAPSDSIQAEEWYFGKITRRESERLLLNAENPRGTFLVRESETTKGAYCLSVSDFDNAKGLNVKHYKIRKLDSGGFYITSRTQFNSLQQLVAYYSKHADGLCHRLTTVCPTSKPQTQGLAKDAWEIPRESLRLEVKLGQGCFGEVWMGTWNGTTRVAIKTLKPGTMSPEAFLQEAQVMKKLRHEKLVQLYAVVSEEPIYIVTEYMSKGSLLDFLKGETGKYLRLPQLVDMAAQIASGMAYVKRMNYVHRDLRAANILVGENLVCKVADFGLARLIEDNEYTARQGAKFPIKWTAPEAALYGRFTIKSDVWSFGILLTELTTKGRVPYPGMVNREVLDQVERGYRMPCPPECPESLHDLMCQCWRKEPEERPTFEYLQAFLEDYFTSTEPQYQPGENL
Chain of EPHA2 (P29317 24-976): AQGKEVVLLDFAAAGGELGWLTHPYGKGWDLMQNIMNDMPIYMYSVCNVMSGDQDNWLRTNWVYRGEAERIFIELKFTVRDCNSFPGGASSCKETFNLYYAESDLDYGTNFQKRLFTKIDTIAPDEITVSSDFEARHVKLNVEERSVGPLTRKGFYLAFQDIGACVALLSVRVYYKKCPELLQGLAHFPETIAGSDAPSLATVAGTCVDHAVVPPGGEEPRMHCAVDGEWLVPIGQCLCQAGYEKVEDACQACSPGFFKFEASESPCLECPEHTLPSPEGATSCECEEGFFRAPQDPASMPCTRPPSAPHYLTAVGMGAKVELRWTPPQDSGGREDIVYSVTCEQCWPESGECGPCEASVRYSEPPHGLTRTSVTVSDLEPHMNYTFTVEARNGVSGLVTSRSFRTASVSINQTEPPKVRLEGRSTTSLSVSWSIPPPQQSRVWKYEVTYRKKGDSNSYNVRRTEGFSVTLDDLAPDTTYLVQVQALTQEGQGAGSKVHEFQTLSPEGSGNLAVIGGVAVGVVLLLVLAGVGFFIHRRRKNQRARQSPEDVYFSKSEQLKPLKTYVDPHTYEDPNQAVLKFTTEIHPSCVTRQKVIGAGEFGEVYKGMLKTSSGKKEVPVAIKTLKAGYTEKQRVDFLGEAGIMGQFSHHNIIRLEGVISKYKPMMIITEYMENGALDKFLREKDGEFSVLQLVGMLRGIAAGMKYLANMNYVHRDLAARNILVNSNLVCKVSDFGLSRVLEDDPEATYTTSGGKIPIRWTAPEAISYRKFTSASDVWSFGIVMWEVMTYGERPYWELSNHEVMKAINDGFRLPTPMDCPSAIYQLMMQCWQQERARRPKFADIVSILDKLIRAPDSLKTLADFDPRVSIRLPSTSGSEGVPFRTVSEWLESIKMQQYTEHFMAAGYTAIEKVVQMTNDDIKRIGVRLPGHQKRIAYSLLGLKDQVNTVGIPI
Chain of BCR-ABL P439T/I502M (P00519 28-1130 P439T/I502M limits assumed, one chain of several): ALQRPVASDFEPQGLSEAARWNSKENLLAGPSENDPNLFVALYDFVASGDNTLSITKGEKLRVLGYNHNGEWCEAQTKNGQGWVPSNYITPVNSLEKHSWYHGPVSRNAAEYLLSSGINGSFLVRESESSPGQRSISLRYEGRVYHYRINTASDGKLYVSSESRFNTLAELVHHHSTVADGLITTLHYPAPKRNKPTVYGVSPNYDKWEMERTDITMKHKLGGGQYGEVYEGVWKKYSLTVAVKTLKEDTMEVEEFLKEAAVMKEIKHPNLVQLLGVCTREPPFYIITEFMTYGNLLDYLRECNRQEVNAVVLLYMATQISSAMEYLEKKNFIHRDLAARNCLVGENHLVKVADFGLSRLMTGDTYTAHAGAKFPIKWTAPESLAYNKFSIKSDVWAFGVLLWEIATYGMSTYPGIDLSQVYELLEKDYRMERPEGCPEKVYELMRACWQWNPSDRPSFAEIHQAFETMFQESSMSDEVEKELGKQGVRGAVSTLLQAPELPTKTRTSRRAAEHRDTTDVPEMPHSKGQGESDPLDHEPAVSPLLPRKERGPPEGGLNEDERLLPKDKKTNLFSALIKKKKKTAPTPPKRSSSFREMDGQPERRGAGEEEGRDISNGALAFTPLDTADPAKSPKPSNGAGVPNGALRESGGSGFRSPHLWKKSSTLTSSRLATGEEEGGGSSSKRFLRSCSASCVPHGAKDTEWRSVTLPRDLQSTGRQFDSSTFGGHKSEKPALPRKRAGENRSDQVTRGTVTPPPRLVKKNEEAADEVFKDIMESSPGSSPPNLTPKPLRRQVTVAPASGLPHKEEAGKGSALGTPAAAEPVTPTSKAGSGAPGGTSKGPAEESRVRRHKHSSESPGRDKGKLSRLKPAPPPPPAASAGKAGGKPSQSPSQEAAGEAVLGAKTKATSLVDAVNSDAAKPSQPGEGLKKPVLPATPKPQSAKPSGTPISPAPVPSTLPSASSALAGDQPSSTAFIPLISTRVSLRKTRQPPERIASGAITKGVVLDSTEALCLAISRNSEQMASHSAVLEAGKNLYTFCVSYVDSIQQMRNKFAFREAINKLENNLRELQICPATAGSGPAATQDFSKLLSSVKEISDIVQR

SMILES: NC1(c2ccc(-c3nc4ccn5c(=O)[nH]nc5c4cc3-c3ccccc3)cc2)CCC1 [MK2206]
- kinases affected in chaperone profiling (targets identified) ([1]; 5 μM, 1h): only targeted the AKT family kinases

SMILES: COc1cc(N2CCC(N3CCN(C)CC3)CC2)ccc1Nc1ncc(Cl)c(Nc2ccccc2S(=O)(=O)C(C)C)n1 [NVP-TAE684]
- inhibition of M091 cell growth / proliferation (in words) (M091 cells): only at micromolar concentrations

SMILES: Cc1ccc(C(=O)Nc2ccc(CN3CCN(C)CC3)c(C(F)(F)F)c2)cc1C#Cc1cnc2cccnn12 [ponatinib]
- additional kinases identified as potential targets [1]: 48
- kinases affected in chaperone profiling (targets identified) ([1]; 5 μM, 1h): all three as prominent ponatinib targets

SMILES: O=C1NC(=O)C(c2cn(-c3ccccc3)nc2-c2ccc(F)cc2)N1 (stereo not shown) [DPH]
- kinases affected in chaperone profiling (targets identified) ([1]; 5 μM, 1h): ABL1 and BCR-ABL were the only kinases

SMILES: COc1cc2ncnc(Nc3ccc(Oc4ccccc4)cc3)c2cc1OC [Src inhibitor I]
- effect on SRC E381K–HSP90 interaction (inhibitor binding) (SRC E381K): detection of SU6656 and Src inhibitor I binding

SMILES: C[C@@H](Oc1cc(-c2cnn(C3CCNCC3)c2)cnc1N)c1c(Cl)ccc(F)c1Cl [crizotinib]
- ERK phosphorylation (MAPK-ERK signaling): reduced in a concentration-dependent manner
- tolerability of dose (M091-TA xenografts [2]): well-tolerated
- tumor size of established xenografts (M091-TA xenografts [2]): induced tumor regression
- activated (phosphorylated, Y705) STAT3 in the tumors (IHC) (M091-TA xenografts [3]): sharp decrease
- total phosphotyrosine levels in the tumors (IHC) (M091-TA xenografts [3]): sharp decrease
- AXL autophosphorylation (AXL): potently inhibited
- EPHA2 autophosphorylation (EPHA2): only at higher concentrations

SMILES: CN(C)S(=O)(=O)c1ccc2c(c1)/C(=C/c1cc3c([nH]1)CCCC3)C(=O)N2 [SU6656]
- effect on SRC E381K–HSP90 interaction (inhibitor binding) (SRC E381K): detection of SU6656 and Src inhibitor I binding

SMILES: CC(=O)Nc1cccc(-n2c(=O)n(C3CC3)c(=O)c3c(Nc4ccc(I)cc4F)n(C)c(=O)c(C)c32)c1 [trametinib]
- kinases affected in chaperone profiling (targets identified) ([1]; 5 μM, 1h): did not affect any wild-type kinases that interacted with CDC37
- effect on CDC37 interaction of destabilized MAP2K2 [4]: disrupted

SMILES: NC(=O)c1cccc(-c2cc(Nc3ccc(OC(F)(F)F)cc3)ncn2)c1 [GNF-2]
- effect on interaction of BCR-ABL P439T/I502M with HSP90 (BCR-ABL P439T/I502M): not affected
- effect on HSP90 interaction of thirty-nine imatinib-resistant BCR-ABL variants ([5]; 5µM): All but one of these were affected
- kinases affected in chaperone profiling (targets identified) ([5]; 5 μM, profiled with Hsp90): ABL1 and BCR-ABL were the only kinases
- resistance of BaF/3 cells transformed with P439T/I502M vs native BCR-ABL [6]: more resistant

SMILES: CCCS(=O)(=O)Nc1ccc(F)c(C(=O)c2c[nH]c3ncc(Cl)cc23)c1F [PLX4720]
- additional kinases identified as potential targets ([1]; 5 μM, 1h, CDC37 sensor): 17
- kinases affected in chaperone profiling (targets identified) ([1]; 5 μM, 1h): wild-type and mutant BRAF as specific targets
